From patent US10278957B2, “Opioid agonist peptides and uses thereof” (Protagonist Therapeutics, Inc., priority 2017, dated 2019) come the findings set out here.

SMILES strings stand for the structures. pEC50: −log10 of the molar value. Square brackets hold non-standard residues; d marks the D form. Peptide text beside a SMILES is read from it. Phe(3,4-Cl2) = N[C@@H](Cc1ccc(Cl)c(Cl)c1)C(=O)O; Phe(4-tBu) = CC(C)(C)c1ccc(C[C@H](N)C(=O)O)cc1; Dip = N[C@H](C(=O)O)C(c1ccccc1)c1ccccc1; Phe(4-F) = N[C@@H](Cc1ccc(F)cc1)C(=O)O; Dmt = Cc1cc(O)cc(C)c1C[C@H](N)C(=O)O; dNMeF = CN[C@H](Cc1ccccc1)C(=O)O; Tic = O=C(O)[C@@H]1Cc2ccccc2CN1; Sar = CNCC(=O)O

Broadly, the pEC50 is the EC50 on a negative log10 scale, so that one unit is a factor of ten. A lower pEC50 goes with a high EC50.

This experiment deals with T1, δ-opioid receptor (DOR) (Homo sapiens, UniProt P41143).
T1 construct: host or cells: cAMP Hunter CHO-K1 OPRD1 Gαi cell line
T1 sequence (P41143 whole entry): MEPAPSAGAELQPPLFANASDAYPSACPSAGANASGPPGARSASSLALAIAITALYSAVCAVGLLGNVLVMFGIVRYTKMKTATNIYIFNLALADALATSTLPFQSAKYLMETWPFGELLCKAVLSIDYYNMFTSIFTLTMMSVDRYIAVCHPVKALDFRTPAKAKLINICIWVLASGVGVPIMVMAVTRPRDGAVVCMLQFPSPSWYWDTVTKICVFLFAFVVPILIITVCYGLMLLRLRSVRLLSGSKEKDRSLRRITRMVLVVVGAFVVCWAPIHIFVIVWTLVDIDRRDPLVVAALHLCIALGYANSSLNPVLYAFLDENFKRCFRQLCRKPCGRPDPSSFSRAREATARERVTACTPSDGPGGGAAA
In words: DOR agonist cAMP assay (HitHunter cAMP, forskolin-stimulated). Type of experiment: cell-based. How it is done:
The HitHunter® cAMP chemiluminescent assay kit (DiscoveRx, Cat# 90-0075 SM25) was used to detect cAMP production in cAMP Hunter™ Gαi cell lines over expressing either Human-ORPM1 (Discoverx, Catalog# 95-0107C2) or Human-ORPD1 (DiscoveRx, Catalog# 95-0108C2). Opioid agonist binding to the Gαi receptors inhibits the intracellular cAMP accumulation induced by forskolin, which activates adenylate cyclase and increases intracellular levels of cAMP.
Cells were cultured in media consisting of Ham's F-12 Nutrient Mix (Life Technologies, Catalog#31765035), 10% FBS (Life Technologies, Catalog# 16140-071), 4 mM GlutaMAX (Life Technologies, Catalog#35050-061), […] (Life Technologies), 100 ug/ml of Penn-Strep (Life Technologies) and 0.5 mg/ml Geneticin (Life Technologies, Catalog# 10131-027). The cultures were maintained at 37° C. under 5% CO2.
In preparation for cAMP assay, the cells were seeded at a density of 300,000 cells/ml in 100 ul of media/well in 96-well microplate. Wells that were designated for cAMP standards were left empty.
Opioid agonist serial dilutions were prepared in separate dilution plate (11-point series of 3× (3-fold) dilution) in Cell Assay buffer, including 3× forskolin for Gαi target. For Hunter CHO-K1 OPRM1 or CHO-K1 OPRD1 Gαi Cell Lines, the final forskolin concentration was 20 uM.
15 ul of each 3× opioid agonist serial dilution was added in the presence of forskolin in duplicate to the designated wells. The final concentration of each dilution was at 3× of the final screening concentration. The assay plate was incubated for 30 min, at 37° C. under 5% CO2.
Cellular cAMP concentrations were measured using the HitHunter cAMP Assay kit following the manufacturer's protocol. HitHunter cAMP assay is a gain-of-signal competitive immunoassay based on Enzyme Fragment Complementation (EFC) technology. The kit uses β-galactosidase (β-gal) enzyme split into Enzyme Donor (ED) and Enzyme Acceptor (EA). The cellular cAMP and ED-labelled cAMP compete for anti-cAMP antibody. […] When cellular cAMP level is high, it competes for the anti-cAMP antibody, thereby releasing ED-cAMP to complement with EA to produce a luminescent signal. The amount of signal is directly proportional to the amount of cAMP in cells and can be quantified using cAMP standards. The assay plates were read using a PerkinElmer Envision instrument to detect the chemiluminescence signal in each well (luminescence reader at 0.1 to 1 second/well). Data analysis was performed using Graphpad Prism 7.EC50 was calculated by nonlinear regression, using the four-parameter hill equation.
For `Cc1cc(O)cc(C)c1C[C@H](N)C(=O)N[C@H](CCCNC(=N)N)C(=O)N[C@@H](Cc1ccccc1)C(=O)N[C@@H](CC(C)C)C(N)=O` [compound 29] (H-[Dmt][dR]FL-NH2), the pEC50 was 7.30 to 8.00.
For `Cc1cc(O)cc(C)c1C[C@H](N)C(=O)N[C@H](C)C(=O)N(C)CC(=O)N[C@H](CC(=O)N(C)CC(N)=O)Cc1ccccc1` [compound 64] the value was 6.70 to 7.30.
For `Cc1cc(O)cc(C)c1C[C@H](N)C(=O)N[C@@H](C)C(=O)NCC(=O)N[C@H](CC(=O)N(C)CC(=O)O)Cc1ccccc1` [compound 88] the value was 7.30 to 8.00.
For `Cc1cc(O)cc(C)c1C[C@H](N)C(=O)N[C@H](C)C(=O)NCC(=O)N[C@H](CC(=O)N(CC(N)=O)C1CCCCC1)Cc1ccccc1` [compound 123] the value was more than 9.00; for `Cc1cc(O)cc(C)c1C[C@H](N)C(=O)N[C@H](CCCNC(=N)N)C(=O)N[C@@H](Cc1ccc(Cl)c(Cl)c1)C(=O)N(C)CC(N)=O` [compound 22] (H-[Dmt][dR][Phe(3,4-Cl2)][Sar]-NH2), 7.30 to 8.00.
As to `Cc1cc(C(N)=O)cc(C)c1C[C@H](N)C(=O)N(C)[C@@H](CCCNC(=N)N)C(=O)NCC(=O)N[C@H](CC(=O)N(C)CC(N)=O)Cc1ccccc1` [compound 78], the negative-log EC50 (pEC50) was 6.70 to 7.30.
The result for `Cc1cc(O)cc(C)c1C[C@H](N)C(=O)N[C@H](CCCNC(=N)N)C(=O)N1Cc2ccccc2C[C@H]1C(=O)N(C)CC(N)=O` [compound 21] (H-[Dmt][dR][Tic][Sar]-NH2) reads less than 6.70; that for `Cc1cc(O)cc(C)c1C[C@H](N)C(=O)N[C@H](CCCNC(=N)N)C(=O)N[C@@H](Cc1ccccc1)C(=O)N[C@@H](Cc1ccc(F)cc1)C(N)=O` [compound 16] (H-[Dmt][dR]F[Phe(4-F)]-NH2), 7.30 to 8.00.
The result for `Cc1cc(O)cc(C)c1C[C@H](N)C(=O)N[C@H](CCCNC(=N)N)C(=O)N[C@@H](Cc1ccccc1)C(=O)N[C@H](C(N)=O)C(c1ccccc1)c1ccccc1` [compound 36] (H-[Dmt][dR]F[Dip]-NH2) reads 7.30 to 8.00.
The result for `Cc1cc(O)cc(C)c1C[C@H](N)C(=O)N[C@H](C)C(=O)NCC(=O)N[C@@H](Cc1ccc(F)cc1)C(=O)NCC(N)=O` [compound 38] reads more than 9.00.
Turning to `Cc1cc(O)cc(C)c1C[C@H](N)C(=O)N[C@H](C)C(=O)NCC(=O)N[C@H](CC(=O)N(CCc1ccccc1)CC(N)=O)Cc1ccccc1` [compound 121], the pEC50 was more than 9.00.
For `CCCC[C@@H](C(=O)O)N(C)C(=O)C[C@H](Cc1ccccc1C)NC(=O)CNC(=O)[C@@H](C)NC(=O)[C@@H](N)Cc1c(C)cc(C(N)=O)cc1C` [compound 163] the value was 8.00 to 9.00.
For `CC(=O)N[C@@H](Cc1c(C)cc(O)cc1C)C(=O)N[C@H](C)C(=O)NCC(=O)N[C@H](CC(=O)N(C)CC(N)=O)Cc1ccccc1` [compound 86] the value was 7.30 to 8.00; for `Cc1cc(O)cc(C)c1C[C@H](N)C(=O)N[C@H](CCCNC(=N)N)C(=O)N[C@@H](Cc1ccc(C(C)(C)C)cc1)C(=O)N(C)CC(N)=O` [compound 24] (H-[Dmt][dR][Phe(4-tBu)][Sar]-NH2), less than 6.70; for `Cc1cc(O)cc(C)c1C[C@H](N)C(=O)N[C@H](C)C(=O)NCC(=O)N1Cc2ccccc2C[C@H]1C(=O)N(C)CC(N)=O` [compound 107], 7.30 to 8.00.
For the compound `Cc1cc(O)cc(C)c1C[C@H](N)C(=O)N[C@H](CCCNC(=N)N)C(=O)N(C)CC(=O)N[C@@H](Cc1c[nH]c2ccccc12)C(N)=O` [compound 35] (H-[Dmt][dR][Sar]W-NH2), the negative-log EC50 (pEC50) was less than 6.70.
The result for `Cc1cc(O)cc(C)c1C[C@H](N)C(=O)N[C@H](CCCNC(=N)N)C(=O)N[C@@H](Cc1ccccc1)C(=O)N(C)[C@H](Cc1ccccc1)C(N)=O` [compound 14] (H-[Dmt][dR]F[dNMeF]-NH2) reads 7.30 to 8.00.
The result for `Cc1cc(O)cc(C)c1C[C@H](N)C(=O)N[C@H](C)C(=O)NCC(=O)N[C@H](CC(=O)N(CCC(=O)O)CC(N)=O)Cc1ccccc1` [compound 120] reads more than 9.00.
